Data as given in publication PMC6934184, “Selective DNA-PKcs inhibition extends the therapeutic index of localized radiotherapy and chemotherapy” (The Journal of Clinical Investigation, 2019).

Target: T1, HIPK3 (YAK1) (Homo sapiens, UniProt Q9H422)
T1 construct: purchased Thermo Fisher Scientific (Life Technologies) SelectScreen
Test: SelectScreen Z'LYTE
Type: biochemical
Summary of the method: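 SelectScreen broad panel; activity (Z'LYTE, Adapta) plus binding formats. ATP: Km app for CSF1R Z'LYTE; 10 for CAMK1 Adapta. Readout = % per kinase.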

T1 sequence (Q9H422 whole entry): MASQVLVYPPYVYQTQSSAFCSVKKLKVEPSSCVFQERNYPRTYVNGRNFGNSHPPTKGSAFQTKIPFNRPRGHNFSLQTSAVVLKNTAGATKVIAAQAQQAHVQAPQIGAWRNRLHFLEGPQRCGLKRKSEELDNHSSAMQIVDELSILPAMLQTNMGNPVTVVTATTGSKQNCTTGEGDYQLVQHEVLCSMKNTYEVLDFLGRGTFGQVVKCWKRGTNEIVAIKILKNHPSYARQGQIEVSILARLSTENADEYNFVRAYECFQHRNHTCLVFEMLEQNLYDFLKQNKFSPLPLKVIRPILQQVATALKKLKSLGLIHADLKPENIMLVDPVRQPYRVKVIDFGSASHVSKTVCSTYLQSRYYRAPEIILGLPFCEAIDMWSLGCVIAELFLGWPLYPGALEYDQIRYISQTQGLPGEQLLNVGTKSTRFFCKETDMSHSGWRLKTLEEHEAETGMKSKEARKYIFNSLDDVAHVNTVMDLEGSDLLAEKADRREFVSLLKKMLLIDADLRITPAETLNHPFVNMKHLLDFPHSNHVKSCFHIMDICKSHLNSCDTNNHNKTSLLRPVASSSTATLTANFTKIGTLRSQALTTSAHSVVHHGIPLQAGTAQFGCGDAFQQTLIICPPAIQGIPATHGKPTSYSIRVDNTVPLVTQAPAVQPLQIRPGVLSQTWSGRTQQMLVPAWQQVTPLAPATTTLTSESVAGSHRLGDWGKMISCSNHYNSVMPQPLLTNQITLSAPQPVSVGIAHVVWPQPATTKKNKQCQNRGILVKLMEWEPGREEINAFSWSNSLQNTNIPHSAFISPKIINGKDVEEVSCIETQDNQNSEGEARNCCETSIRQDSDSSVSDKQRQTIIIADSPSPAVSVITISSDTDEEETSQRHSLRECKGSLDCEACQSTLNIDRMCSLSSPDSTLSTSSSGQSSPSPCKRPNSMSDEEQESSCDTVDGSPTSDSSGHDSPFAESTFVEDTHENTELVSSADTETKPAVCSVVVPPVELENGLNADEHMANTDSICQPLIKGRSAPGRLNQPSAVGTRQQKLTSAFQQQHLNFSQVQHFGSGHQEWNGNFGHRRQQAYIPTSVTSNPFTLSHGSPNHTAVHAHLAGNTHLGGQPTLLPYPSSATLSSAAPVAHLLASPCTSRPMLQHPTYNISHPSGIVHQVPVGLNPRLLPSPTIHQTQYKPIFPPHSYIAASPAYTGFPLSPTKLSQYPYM

CN(C(=O)CN1CCOCC1)c1ccc2sc3c(-c4cccc5c(=O)cc(N6CC7CCC(C6)O7)oc45)cccc3c2c1 [NU5455]
inhibition at 1 µM: 2.5%
